Measured values from ChEMBL document CHEMBL1201862, “PubChem BioAssay data set” (2004).
Calls of active or inactive are those of the source. Rule as the data show it, for most assays here: actives have a measured EC50 and inactives only a lower limit.

Tests used:
[1] = HEp-2 cell cytotoxicity, dose response, cytotoxicity control for RSV inhibitor project, HTS (AID 2410); format: functional; details: human respiratory syncytial virus
[2] = growth suppression of PTEN-null colon cells, dose response, cell-based, HCT116 PTEN knockout (AID 1047); format: functional;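 also: HCT116 colon tumor cells with PTEN knocked out; cells exposed to compound for 60 hours before readout; potency for loss of cell viability measured by luminescence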
[3] = growth suppression of beta-catenin-knockout colon cells, dose response, cell-based, HCT116, human colon tumor (AID 1045); format: functional;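 also: HCT116 colon tumor cells with beta catenin knocked out; cells exposed to compound for 60 hours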
[4] = target: T1, Replicative DNA helicase DnaB (Mycobacterium tuberculosis, UniProt P9WMR3); experiment: DnaB intein splicing inhibitors, dose response, biochemical, cell-free fluorescence (AID 449749); format: functional
T1 sequence (P9WMR3 whole entry): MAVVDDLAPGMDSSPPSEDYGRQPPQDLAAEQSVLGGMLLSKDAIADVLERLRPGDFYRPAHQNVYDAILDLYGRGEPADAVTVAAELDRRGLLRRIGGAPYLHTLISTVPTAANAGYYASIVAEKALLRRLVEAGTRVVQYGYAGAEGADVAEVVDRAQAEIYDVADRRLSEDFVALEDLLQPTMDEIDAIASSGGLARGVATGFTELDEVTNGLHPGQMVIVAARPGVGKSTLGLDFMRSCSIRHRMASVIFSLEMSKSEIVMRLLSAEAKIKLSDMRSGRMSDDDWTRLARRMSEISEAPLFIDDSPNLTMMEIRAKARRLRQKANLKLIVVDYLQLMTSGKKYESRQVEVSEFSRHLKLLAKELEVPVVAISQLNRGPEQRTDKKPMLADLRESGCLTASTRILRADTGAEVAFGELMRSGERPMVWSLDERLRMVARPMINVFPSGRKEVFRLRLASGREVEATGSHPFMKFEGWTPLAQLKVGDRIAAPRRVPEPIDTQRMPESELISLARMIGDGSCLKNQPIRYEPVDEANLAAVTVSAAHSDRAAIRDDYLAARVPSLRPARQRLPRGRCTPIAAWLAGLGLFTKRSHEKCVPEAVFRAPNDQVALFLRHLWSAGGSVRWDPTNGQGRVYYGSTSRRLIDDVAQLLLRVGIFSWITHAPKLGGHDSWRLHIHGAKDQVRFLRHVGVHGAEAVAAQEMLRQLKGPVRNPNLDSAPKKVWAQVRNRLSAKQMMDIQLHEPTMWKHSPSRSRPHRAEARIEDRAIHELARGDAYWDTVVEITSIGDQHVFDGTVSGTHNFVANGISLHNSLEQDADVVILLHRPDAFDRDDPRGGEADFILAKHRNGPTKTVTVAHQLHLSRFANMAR

Protein RecA = target: T2, Protein RecA (Mycobacterium tuberculosis, UniProt P9WHJ3); experiment: Fluorescence Cell-Free Homogeneous Dose Retest to Identify Inhibitors of RecA-Intein Splicing Activity. [Related pubchem assays (depositor defined):AID2097, AID2223, AID489010, AID492950]; format: functional
T2 sequence (P9WHJ3 whole entry): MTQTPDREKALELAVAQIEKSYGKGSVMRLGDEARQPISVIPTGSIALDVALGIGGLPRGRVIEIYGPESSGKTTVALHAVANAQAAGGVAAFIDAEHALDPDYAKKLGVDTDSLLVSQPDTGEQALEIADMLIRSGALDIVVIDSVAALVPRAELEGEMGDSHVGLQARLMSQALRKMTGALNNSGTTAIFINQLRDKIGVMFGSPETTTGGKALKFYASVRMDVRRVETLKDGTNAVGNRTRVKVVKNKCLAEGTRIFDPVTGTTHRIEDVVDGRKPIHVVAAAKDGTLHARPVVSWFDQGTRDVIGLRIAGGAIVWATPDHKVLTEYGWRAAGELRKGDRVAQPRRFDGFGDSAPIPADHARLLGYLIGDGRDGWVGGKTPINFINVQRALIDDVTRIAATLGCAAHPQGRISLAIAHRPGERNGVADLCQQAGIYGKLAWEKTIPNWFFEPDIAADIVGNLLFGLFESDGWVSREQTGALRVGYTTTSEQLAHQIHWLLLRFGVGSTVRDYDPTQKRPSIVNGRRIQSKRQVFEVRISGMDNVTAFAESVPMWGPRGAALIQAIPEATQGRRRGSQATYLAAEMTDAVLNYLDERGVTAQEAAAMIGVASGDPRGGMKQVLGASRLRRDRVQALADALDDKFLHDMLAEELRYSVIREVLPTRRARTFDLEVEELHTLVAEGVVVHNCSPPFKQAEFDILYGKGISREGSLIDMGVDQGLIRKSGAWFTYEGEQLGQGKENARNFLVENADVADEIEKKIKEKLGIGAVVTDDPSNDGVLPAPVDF

Fatty acid synthase [5] = target: T3, Fatty acid synthase (Homo sapiens, UniProt P49327); experiment: FAS thioesterase domain inhibitors, dose response, biochemical, endpoint fluorescence intensity, uHTS hits (AID 624327); format: functional;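 also: fluorescence from hydrolysis of an O-methyl fluorescein acyl ester substrate by the enzyme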
Fatty acid synthase [6] = target: T3, Fatty acid synthase; experiment: FAS thioesterase domain inhibitors, dose response, biochemical, kinetic fluorescence intensity (AID 624326); format: functional;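 also: rate of fluorescence rise from hydrolysis of a fluorogenic O-methyl fluorescein ester substrate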
[7] = inhibitors of firefly luciferase expression or activity, dose response, H4 neuroglioma cells, luminescence (AID 1990); format: functional, cell-based
BJ [8] = experiment: cytotoxicity toward BJ-TERT fibroblasts, dose response, cell-based, RAS-independent, luminescence (AID 1933); format: functional; details: Homo sapiens
[9] = Luminescence Cell-Based Dose Response HTS to Identify Inhibitors of 5'UTR Stem-Loop Driven Prion Protein mRNA Translation in H4 Neuroglioblastoma Cells. [Related pubchem assays: 1827 (Project Summary), 1813 (Primary HTS)]; format: functional
[10] = inhibitors of SNCA 5'UTR-driven reporter translation, confirmation, H4 neuroglioma cells, luminescence (AID 1988); format: functional, cell-based
BJ [11] = experiment: cells; format: functional, cell-based; details: Homo sapiens
BJ [12] = experiment: cytotoxicity toward BJ-TERT-LT-ST fibroblasts, dose response, cell-based, RAS-independent, luminescence (AID 1935); format: functional; details: Homo sapiens;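 also: BJ fibroblasts immortalized with TERT plus LT and ST oncogenes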
[13] = cytotoxicity toward DRD oncogenic fibroblasts, dose response, cell-based, non-viral oncogenic, luminescence (AID 1934); format: functional; details: Homo sapiens
[14] = target: T4, Heat shock factor protein 1 (Mus musculus, UniProt P38532); experiment: HSF1 potentiators in luciferase reporter cells, confirmation, cell-based, NIH3T3, luminescence, dose retest (AID 435004); format: functional;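 also: stress induced by proteasome inhibitor MG132 added 30 min after compound; luciferase reporter driven by HSF1 response element in NIH3T3 cells; actives raise luminescence as potentiators of the MG132 stress response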
T4 sequence (P38532 whole entry): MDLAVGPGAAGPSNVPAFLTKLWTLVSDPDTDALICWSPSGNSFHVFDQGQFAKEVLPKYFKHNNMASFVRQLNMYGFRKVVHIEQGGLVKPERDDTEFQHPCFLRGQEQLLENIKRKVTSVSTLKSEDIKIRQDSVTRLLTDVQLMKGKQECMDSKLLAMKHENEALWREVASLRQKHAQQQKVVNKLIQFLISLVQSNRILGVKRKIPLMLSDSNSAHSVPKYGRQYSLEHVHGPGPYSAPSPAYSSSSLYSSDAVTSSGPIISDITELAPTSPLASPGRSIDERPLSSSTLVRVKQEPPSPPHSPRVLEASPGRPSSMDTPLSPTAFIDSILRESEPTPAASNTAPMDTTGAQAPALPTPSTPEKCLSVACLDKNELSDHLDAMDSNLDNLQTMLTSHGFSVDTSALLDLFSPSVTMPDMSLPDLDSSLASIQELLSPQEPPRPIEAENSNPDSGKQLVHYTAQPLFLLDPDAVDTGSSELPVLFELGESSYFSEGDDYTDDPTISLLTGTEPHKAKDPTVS

[15] = Luminescence Cell-Based Dose Response HTS to Identify Activators of Luciferase Translation or Activity in H4 […] Cells. [Related pubchem assays: 1829 (Project Summary), 1814 (Primary HTS)]; format: functional
H4 = experiment: Luminescence Cell-Based Dose Response HTS to Identify Activators of 5'UTR Stem-Loop Driven Prion Protein mRNA Translation in H4 Neuroglioblastoma Cells. [Related pubchem assays: 1829 (Project Summary), 1814 (Primary HTS)]; format: functional; details: Homo sapiens

T3 sequence (P49327 whole entry, the tested form may be a part): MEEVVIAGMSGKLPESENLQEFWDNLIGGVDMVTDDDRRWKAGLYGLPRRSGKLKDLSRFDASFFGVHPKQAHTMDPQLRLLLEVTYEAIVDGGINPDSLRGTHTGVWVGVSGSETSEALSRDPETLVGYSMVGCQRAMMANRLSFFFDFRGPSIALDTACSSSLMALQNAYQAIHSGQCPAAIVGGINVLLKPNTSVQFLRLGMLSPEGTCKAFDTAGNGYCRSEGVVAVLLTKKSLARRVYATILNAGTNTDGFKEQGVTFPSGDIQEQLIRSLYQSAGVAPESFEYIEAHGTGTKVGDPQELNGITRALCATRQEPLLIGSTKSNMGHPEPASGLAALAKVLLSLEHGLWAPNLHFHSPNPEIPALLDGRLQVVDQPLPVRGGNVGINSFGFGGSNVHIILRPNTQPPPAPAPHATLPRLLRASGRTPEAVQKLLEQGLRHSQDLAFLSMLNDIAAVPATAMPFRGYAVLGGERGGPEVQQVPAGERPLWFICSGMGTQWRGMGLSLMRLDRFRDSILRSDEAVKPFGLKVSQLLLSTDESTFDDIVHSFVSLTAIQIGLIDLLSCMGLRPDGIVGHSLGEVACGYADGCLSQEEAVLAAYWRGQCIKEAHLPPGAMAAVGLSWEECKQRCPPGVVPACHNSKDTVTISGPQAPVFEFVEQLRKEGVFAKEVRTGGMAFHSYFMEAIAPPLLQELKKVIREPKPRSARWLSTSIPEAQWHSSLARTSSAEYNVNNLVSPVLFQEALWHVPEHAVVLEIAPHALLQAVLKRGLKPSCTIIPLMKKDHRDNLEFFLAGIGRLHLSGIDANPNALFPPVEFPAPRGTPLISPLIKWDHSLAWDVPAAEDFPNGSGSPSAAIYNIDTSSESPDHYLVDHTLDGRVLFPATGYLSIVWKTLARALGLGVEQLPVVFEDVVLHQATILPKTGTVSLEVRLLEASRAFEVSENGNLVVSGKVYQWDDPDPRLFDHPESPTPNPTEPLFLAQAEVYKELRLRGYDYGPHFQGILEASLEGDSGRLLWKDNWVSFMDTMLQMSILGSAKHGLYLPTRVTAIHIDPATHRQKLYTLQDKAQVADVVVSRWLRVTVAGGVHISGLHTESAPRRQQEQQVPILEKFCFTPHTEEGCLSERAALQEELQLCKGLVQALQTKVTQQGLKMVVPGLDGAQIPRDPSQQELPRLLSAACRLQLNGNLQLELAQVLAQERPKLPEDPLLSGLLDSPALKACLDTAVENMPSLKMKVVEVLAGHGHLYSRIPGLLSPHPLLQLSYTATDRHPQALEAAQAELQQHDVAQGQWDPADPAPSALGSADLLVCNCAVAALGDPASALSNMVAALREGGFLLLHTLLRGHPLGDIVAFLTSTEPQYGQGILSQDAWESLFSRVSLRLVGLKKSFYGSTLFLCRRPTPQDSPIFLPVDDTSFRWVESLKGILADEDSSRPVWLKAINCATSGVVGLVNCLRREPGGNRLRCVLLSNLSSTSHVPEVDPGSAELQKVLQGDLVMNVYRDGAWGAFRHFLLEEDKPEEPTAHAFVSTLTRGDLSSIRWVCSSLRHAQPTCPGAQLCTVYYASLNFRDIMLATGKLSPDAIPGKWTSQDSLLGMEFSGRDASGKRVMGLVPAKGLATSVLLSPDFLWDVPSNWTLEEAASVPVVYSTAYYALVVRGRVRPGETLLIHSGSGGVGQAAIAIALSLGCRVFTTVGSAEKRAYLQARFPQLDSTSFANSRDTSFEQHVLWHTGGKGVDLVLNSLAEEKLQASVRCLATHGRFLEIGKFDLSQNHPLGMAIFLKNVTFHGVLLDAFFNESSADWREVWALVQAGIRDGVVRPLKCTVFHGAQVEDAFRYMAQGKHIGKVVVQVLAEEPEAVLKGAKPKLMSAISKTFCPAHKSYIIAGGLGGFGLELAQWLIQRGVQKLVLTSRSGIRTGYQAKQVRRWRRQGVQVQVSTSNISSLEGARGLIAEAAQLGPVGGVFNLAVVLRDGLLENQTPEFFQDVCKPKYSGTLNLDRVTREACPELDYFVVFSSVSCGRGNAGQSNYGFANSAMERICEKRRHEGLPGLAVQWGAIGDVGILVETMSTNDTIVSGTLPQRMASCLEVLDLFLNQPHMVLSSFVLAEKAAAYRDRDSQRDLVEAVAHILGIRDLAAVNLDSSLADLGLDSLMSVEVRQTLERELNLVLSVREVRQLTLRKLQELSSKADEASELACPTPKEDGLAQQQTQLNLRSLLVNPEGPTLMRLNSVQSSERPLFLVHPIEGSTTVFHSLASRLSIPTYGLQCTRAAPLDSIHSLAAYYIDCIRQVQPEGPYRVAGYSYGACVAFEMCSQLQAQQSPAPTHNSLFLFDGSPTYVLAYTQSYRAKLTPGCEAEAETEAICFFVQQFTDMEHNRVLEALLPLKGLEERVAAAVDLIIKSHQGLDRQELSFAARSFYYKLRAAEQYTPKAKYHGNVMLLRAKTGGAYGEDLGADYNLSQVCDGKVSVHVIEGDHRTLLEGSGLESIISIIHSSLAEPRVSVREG

Compound: N#C/C(=C\c1cccc(NC(=O)c2ccccc2Cl)c1)C(=O)NCCc1ccccc1
- CC50 [1]: 15.6 µM (active)
- EC50 [2]: 14.4 µM (active)
- EC50 [3]: 15.1 µM (active)
- AC50 [4]: 8.73 µM (active)
- EC50 (Protein RecA): 11.2 µM (active)

Compound: N#CC1(NC(=O)COC(=O)c2cc([N+](=O)[O-])ccc2N2CCCC2)CCCCC1
- IC50 (Fatty acid synthase [5]): 7.64 µM (active)
- IC50 (Fatty acid synthase [6]): 5.51 µM (active)

Compound: CCCCOc1ccccc1NC(=O)Cn1c(-c2nonc2N)nc2ccccc21
- EC50 [7]: 7.21 µM (inconclusive)
- EC50 (BJ [8]): 3.38 µM (active)
- EC50 [9]: 8.28 µM (active)
- EC50 [10]: 2.49 µM (active)
- EC50 (BJ [11]): 7.06 µM (active)
- EC50 [2]: 0.254 µM (active)
- EC50 [3]: 0.163 µM (active)
- EC50 (BJ [12]): 3.73 µM (inconclusive)
- EC50 [13]: 4.23 µM (active)

Compound: N#CC1=C(N)Oc2[nH]nc(-c3cccs3)c2C1c1ccsc1 (stereo unspecified)
- AC50 [4]: 2.2 µM (active)
- EC50 (Protein RecA): 0.672 µM (active)

Compound: CCOC(=O)c1c(C)n(-c2ccc(C)cc2)c2c(CC(C)=O)c(Br)c(OC)c(O)c12
- EC50 [14]: > 260 µM (inactive)

Compound: Cc1c(C(=O)NCc2ccoc2)oc2ccc3c(c12)C(=O)CC(C)(C)O3
- EC50 [15]: 33.7 µM (active)
- EC50 (H4): > 120 µM (not active)

Compound: CN(Cc1ccccc1)c1nc(N)c([N+](=O)[O-])c(NCc2ccccc2)n1
- EC50 [14]: > 260 µM (inactive)

Compound: O=C(Oc1ccc(Br)cc1)C1CC(=O)N(c2ccc(F)cc2)C1 (stereo unspecified)
- AC50 [4]: 7.12 µM (active)
- EC50 (Protein RecA): 11.8 µM (active)

Compound: CCCc1nn(C)c2c1C(c1cccnc1)C(C#N)=C(N)O2 (stereo unspecified)
- AC50 [4]: 6.1 µM (active)
- EC50 (Protein RecA): 3.83 µM (active)

Compound: Cc1ccc(C)c(C2NC(=O)c3ccccc3N2)c1 (stereo unspecified)
- EC50 (BJ [8]): 9.8 µM (inconclusive)
- EC50 (BJ [11]): 93.9 µM (active)
- EC50 (BJ [12]): 18.2 µM (active)
- EC50 [13]: 19.3 µM (inconclusive)

Compound: COc1ccc(C(c2nnnn2-c2c(C)cccc2C)N2CCC(n3c(O)nc4ccccc43)CC2)cc1 (stereo unspecified)
- IC50 (Fatty acid synthase [5]): 16.5 µM (active)
- IC50 (Fatty acid synthase [6]): 16 µM (active)

Compound: COc1cccc(Sc2ccccc2/C=N/NC(N)=O)c1
- EC50 [14]: > 260 µM (inactive)

Compound: O=C(CN1C(=O)c2cccc([N+](=O)[O-])c2C1=O)N1CCc2ccccc2C1
- IC50 (Fatty acid synthase [6]): 9.41 µM (active)

Compound: NC(=O)N/N=C/c1cn(-c2ccccc2)nc1-c1cccs1
- EC50 (BJ [8]): 19.4 µM (active)
- EC50 (BJ [11]): > 150 µM (not active)
- EC50 (BJ [12]): > 150 µM (not active)
- EC50 [13]: 36 µM (active)

Compound: C/C(CC(=O)N1CCN(C=O)CC1)=N\NC(=O)c1cccc([N+](=O)[O-])c1
- AC50 [4]: 24.7 µM (active)
- EC50 (Protein RecA): 1.99 µM (active)

Compound: Cc1cccc(/C=N\NC(=O)c2csnn2)c1
- EC50 [14]: > 260 µM (inconclusive)
